Data from ChEMBL document CHEMBL5052840, “Pharmaceutical compounds and therapeutic methods” (2020).
Active and inactive are the calls of the source. The calls are words filed in the database; no cut-off is given here.

Assays:
[1] = Brain concentration in male C57BL/6 mouse at 10 mg/kg, iv administered as single dose measured at 3 hrs measured by LC/MS-MS analysis; assay type: ADME, organism-based; settings: read-out: Drug uptake
[2] = Brain concentration in male C57BL/6 mouse at 10 mg/kg, po administered as single dose measured at 12 hrs measured by LC/MS-MS analysis; assay type: ADME, organism-based; settings: read-out: Drug uptake
[3] = Brain concentration in male C57BL/6 mouse at 10 mg/kg, iv administered as single dose measured at 1 hr measured by LC/MS-MS analysis; assay type: ADME, organism-based; settings: read-out: Drug uptake
[4] = target: T1, Polycomb complex protein BMI-1 (Homo sapiens) (UniProt P35226); assay: Inhibition of BMI1 in human Glioblastoma cell 3D spheres at 7 to 10 nM assessed as reduction in BMI1 protein levels measured by Western blotting method; assay type: cell-based; settings: Glioblastoma cell line, dose 7-10 nM
T1 sequence (whole entry): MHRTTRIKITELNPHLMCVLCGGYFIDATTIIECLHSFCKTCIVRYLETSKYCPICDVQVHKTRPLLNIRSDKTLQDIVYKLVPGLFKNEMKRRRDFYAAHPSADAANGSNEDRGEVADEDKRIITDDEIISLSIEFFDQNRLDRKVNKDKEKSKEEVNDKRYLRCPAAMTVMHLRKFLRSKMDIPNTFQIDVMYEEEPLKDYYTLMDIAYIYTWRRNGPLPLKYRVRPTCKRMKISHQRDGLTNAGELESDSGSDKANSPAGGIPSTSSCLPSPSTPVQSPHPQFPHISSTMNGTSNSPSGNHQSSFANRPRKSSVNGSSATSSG

[5] = Ratio of drug level in male C57BL/6 mouse brain to plasma at 10 mg/kg, iv administered as single dose measured at 6 hrs measured by LC/MS-MS analysis; assay type: ADME, organism-based; settings: read-out: BPR
[6] = Plasma concentration in male C57BL/6 mouse at 10 mg/kg, po administered as single dose measured at 0.35 hrs measured by LC/MS-MS analysis; assay type: ADME, organism-based
[7] = Plasma concentration in male C57BL/6 mouse at 10 mg/kg, iv administered as single dose measured at 3 hrs measured by LC/MS-MS analysis; assay type: ADME, organism-based
[8] = Plasma concentration in male C57BL/6 mouse at 10 mg/kg, iv administered as single dose measured at 1 hr measured by LC/MS-MS analysis; assay type: ADME, organism-based
[9] = Plasma concentration in male C57BL/6 mouse at 10 mg/kg, ip administered as single dose measured at 0.35 hrs measured by LC/MS-MS analysis; assay type: ADME, organism-based
[10] = Ratio of drug level in male C57BL/6 mouse brain to plasma at 10 mg/kg, iv administered as single dose measured at 1 hr measured by LC/MS-MS analysis; assay type: ADME, organism-based; settings: read-out: BPR
[11] = Efflux ratio of apparent permeability across basolateral to apical membrane over apical to basolateral membrane in human Caco-2 cells measured by LC-MS analysis; assay type: ADME, cell-based
[12] = Brain concentration in male C57BL/6 mouse at 10 mg/kg, iv administered as single dose measured at 0.08 hrs measured by LC/MS-MS analysis; assay type: ADME, organism-based; settings: read-out: Drug uptake
[13] = Ratio of drug level in male C57BL/6 mouse brain to plasma at 10 mg/kg, iv administered as single dose measured at 3 hrs measured by LC/MS-MS analysis; assay type: ADME, organism-based; settings: read-out: BPR
[14] = Ratio of drug level in male C57BL/6 mouse brain to plasma at 10 mg/kg, ip administered as single dose measured at 3 hrs measured by LC/MS-MS analysis; assay type: ADME, organism-based; settings: read-out: BPR
[15] = Brain concentration in male C57BL/6 mouse at 10 mg/kg, ip administered as single dose measured at 3 hrs measured by LC/MS-MS analysis; assay type: ADME, organism-based; settings: read-out: Drug uptake
[16] = Plasma concentration in male C57BL/6 mouse at 10 mg/kg, po administered as single dose measured at 3 hrs measured by LC/MS-MS analysis; assay type: ADME, organism-based
[17] = Brain concentration in male C57BL/6 mouse at 10 mg/kg, ip administered as single dose measured at 0.08 hrs measured by LC/MS-MS analysis; assay type: ADME, organism-based; settings: read-out: Drug uptake
[18] = Ratio of drug level in male C57BL/6 mouse brain to plasma at 10 mg/kg, iv administered as single dose measured at 0.08 hrs measured by LC/MS-MS analysis; assay type: ADME, organism-based; settings: read-out: BPR
[19] = Plasma concentration in male C57BL/6 mouse at 10 mg/kg, ip administered as single dose measured at 1 hr measured by LC/MS-MS analysis; assay type: ADME, organism-based
[20] = Ratio of drug level in male C57BL/6 mouse brain to plasma at 10 mg/kg, po administered as single dose measured at 0.08 hrs measured by LC/MS-MS analysis; assay type: ADME, organism-based; settings: read-out: BPR
[21] = Brain concentration in male C57BL/6 mouse at 10 mg/kg, po administered as single dose measured at 6 hrs measured by LC/MS-MS analysis; assay type: ADME, organism-based; settings: read-out: Drug uptake
[22] = Brain concentration in male C57BL/6 mouse at 10 mg/kg, iv administered as single dose measured at 6 hrs measured by LC/MS-MS analysis; assay type: ADME, organism-based; settings: read-out: Drug uptake
[23] = Plasma concentration in male C57BL/6 mouse at 10 mg/kg, iv administered as single dose measured at 0.08 hrs measured by LC/MS-MS analysis; assay type: ADME, organism-based
[24] = target: T1, Polycomb complex protein BMI-1 (Homo sapiens); assay: Inhibition of BMI1 in human Glioblastoma cell 3D spheres at 7 to 10 nM assessed as reduction in phospho-RB levels measured by Western blotting method; assay type: cell-based; settings: Glioblastoma cell line, dose 7-10 nM
[25] = Brain concentration in male C57BL/6 mouse at 10 mg/kg, po administered as single dose measured at 3 hrs measured by LC/MS-MS analysis; assay type: ADME, organism-based; settings: read-out: Drug uptake
[26] = Plasma concentration in male C57BL/6 mouse at 10 mg/kg, ip administered as single dose measured at 3 hrs measured by LC/MS-MS analysis; assay type: ADME, organism-based
[27] = Plasma concentration in male C57BL/6 mouse at 10 mg/kg, ip administered as single dose measured at 0.08 hrs measured by LC/MS-MS analysis; assay type: ADME, organism-based
[28] = Ratio of drug level in male C57BL/6 mouse brain to plasma at 10 mg/kg, ip administered as single dose measured at 0.08 hrs measured by LC/MS-MS analysis; assay type: ADME, organism-based; settings: read-out: BPR
[29] = Ratio of drug level in male C57BL/6 mouse brain to plasma at 10 mg/kg, iv administered as single dose measured at 0.35 hrs measured by LC/MS-MS analysis; assay type: ADME, organism-based; settings: read-out: BPR
[30] = Ratio of drug level in male C57BL/6 mouse brain to plasma at 10 mg/kg, ip administered as single dose measured at 0.35 hrs measured by LC/MS-MS analysis; assay type: ADME, organism-based; settings: read-out: BPR
[31] = Brain concentration in male C57BL/6 mouse at 10 mg/kg, ip administered as single dose measured at 6 hrs measured by LC/MS-MS analysis; assay type: ADME, organism-based; settings: read-out: Drug uptake
[32] = Plasma concentration in male C57BL/6 mouse at 10 mg/kg, iv administered as single dose measured at 0.35 hrs measured by LC/MS-MS analysis; assay type: ADME, organism-based
[33] = Plasma concentration in male C57BL/6 mouse at 10 mg/kg, po administered as single dose measured at 1 hr measured by LC/MS-MS analysis; assay type: ADME, organism-based

concentration at 3 h [1]: 9.01 ng/g
concentration at 12 h [2]: 3.9 ng/g
concentration at 1 h [3]: 225 ng/g
inhibition [4]: Active
Kp at 6 h [5]: 1.81
concentration at 0.35 h [6]: 138 ng/mL
concentration at 3 h [7]: 5.64 ng/mL
concentration at 1 h [8]: 80.7 ng/mL
concentration at 0.35 h [9]: 426 ng/mL
Kp at 1 h [10]: 1.67
Ratio [11]: 0.9
concentration at 0.08 h [12]: 1660 ng/g
Kp at 3 h [13]: 1.73
Kp at 3 h [14]: 1.6
concentration at 3 h [15]: 558 ng/g
concentration at 3 h [16]: 3.35 ng/mL
concentration at 0.08 h [17]: 558 ng/g
Kp at 0.08 h [18]: 1.07
concentration at 1 h [19]: 79.1 ng/mL
Kp at 0.08 h [20]: 0.78
concentration at 6 h [21]: 4.52 ng/g
concentration at 6 h [22]: 5.13 ng/g
concentration at 0.08 h [23]: 1580 ng/mL
inhibition [24]: Active
concentration at 3 h [25]: 5.78 ng/g
concentration at 3 h [26]: 1.43 ng/mL
concentration at 0.08 h [27]: 713 ng/mL
Kp at 0.08 h [28]: 1.05
Kp at 0.35 h [29]: 1.83
Kp at 0.35 h [30]: 0.96
concentration at 6 h [31]: 680 ng/g
concentration at 0.35 h [32]: 535 ng/mL
concentration at 1 h [33]: 29.3 ng/mL
Compound: Cc1nc2ccccn2c1-c1csc(Nc2ccc3c(c2)OC(F)(F)O3)n1.Cl
